Reference: US20250051361A1, “5,6,7,8-TETRAHYDRO-2,6-NAPHTHYRIDINE DERIVATIVES AS CANCER THERAPEUTICS” (VRise Therapeutics, Inc., priority 2021, published 2025)
Structures can show the parent of a compound that is named as a salt.

What was measured:
human KRAS G12D protein = target: T1, human KRAS G12D protein (Homo sapiens, UniProt P01116, G12D); assay: HTRF-based nucleotide exchange assay detecting GTP binding to K-Ras; type: biochemical; conditions: human KRAS G12D (amino acid 2-169), SOS1 mediated exchange
T1 construct: A human KRAS G12D protein (corresponding to amino acid 2-169)
T1 sequence (P01116 2-169 isoform P01116-2 G12D): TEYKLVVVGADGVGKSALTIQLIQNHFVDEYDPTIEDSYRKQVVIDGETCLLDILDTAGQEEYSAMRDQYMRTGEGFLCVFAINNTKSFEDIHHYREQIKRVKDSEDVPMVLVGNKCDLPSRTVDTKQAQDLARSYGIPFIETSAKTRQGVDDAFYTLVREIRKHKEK
Procedure: Test 3: Nucleotide Exchange Assay HTRF-based nucleotide exchange assay detecting GTP binding to K-Ras A human KRAS G12D protein (corresponding to amino acid 2-169) was mixed with a a-GST Tb antibody (1.5× solution) and 10 uL of the solution was added to the reaction wells). Compounds (each 10 concentrations or any other concentration of choice at 3-fold or fold of choice for serial dilutions with a starting concentration of […] or or 100 μM or 50 uM) were then delivered to the reaction wells using acoustic dispenser (Echo, Labcyte) and incubated with the Kras/aGST-Tb antibody for 1-hour at room temperature. […] HTRF based SOS1 mediated exchange of GDP to GTP was measured on a microplate reader […] (BMG Labtech) at an excitation wavelength of 337 nm and emission wavelengths of 665 and 620 nm. No-SOS1 reaction or highest control compound concentration was used as blank and % inhibition was calculated and/or IC50 was determined using Sigmoidal dose response (variable slope) equation.

HPAC cells = assay: In vitro cell proliferation assay in HPAC cell line; type: cell-based; conditions: Homo sapiens; for inhibition at 3 µM: TC1: Test Concentration of 3 uM; for inhibition at 10 µM: TC2: Test Concentration of 10 uM
Procedure: (§1) Test 1: In Vitro Cell Proliferation Assay in HPAC and AGS Cell Lines
(§2) Growth inhibition assays was carried out using 10% FBS supplemented media. Cells are to be seeded at a concentration of 2000-3,000 cells/well in a 96-well plate. Test compounds at a concentration range from 0.1 to 30 uM will be added after 24 hours. Growth will be assessed using the MTT or CCK-8 kit for measuring reduction at 0 h (prior to the addition of the test compound) and 72 to 96 hours after the addition of test compound. Absorbance read on a BIO-RAD iMark Microplate or any equivalent micloplate reader at a wavelength of 450 nm to 600 nm. Data will be analyzed and percent inhibition due to the test compound compared to the control is calculated accordingly.

CT-26 = assay: In vitro cell proliferation assay in KRASG12 cell lines (CT-26); type: cell-based; conditions: Mus musculus, CT26; Cell Line CT-26; Cell Titer-Glo, 3 day (2D) or 7 day (3D)
Procedure: Test 2: In Vitro Cell Proliferation Assay in KRASG12 Cell lines Growth inhibition assays was carried out using 10% FBS supplemented media. Cells were seeded at a desired concentration of 1000-2,000 cells/well in a well plate with desired number of wells. Test compounds at a desired concentration range were added after 24 hours. Growth was assessed using the Cell Titer-Glo (CTG, Cell Signaling) for measuring reduction at 0 h (prior to the addition of the test compound) and 3 day (2D) or 7 day (3D) after the addition of test compound. Absorbance read on a BIO-RAD iMark Microplate or any equivalent microplate reader at a predetermined a wavelength for e.g. 450 nm. Data was be analysed and percent inhibition and/or IC50 for each test compound is calculated accordingly.

AGS cells = assay: In vitro cell proliferation assay in AGS cell line; type: cell-based; conditions: Homo sapiens; for inhibition at 3 µM: TC1: Test Concentration of 3 uM; for inhibition at 10 µM: TC2: Test Concentration of 10 uM
Procedure: as §1, §2

Structure (SMILES)	IC50 (human KRAS G12D protein)	inhibition at 3 µM (HPAC cells)	inhibition at 10 µM (HPAC cells)	IC50 (CT-26)	inhibition at 3 µM (AGS cells)	inhibition at 10 µM (AGS cells)
N#Cc1c(OCC23CCCN2C[C@H](F)C3)nc(N2CC3CCC(C2)N3)c2c1CN(c1cccc3cccc(Cl)c13)CC2 (stereo partly drawn) [Ex 17, 1-(3,8-diazabicyclo[3.2.1]octan-3-yl)-6-(8-chloronaphthalen-1-yl)-3-(((2R)-2-fluorotetrahydro-1H-pyrrolizin-7a(5H)-yl)methoxy)-5,6,7,8-tetrahydro-2,6-naphthyridine-4-carbonitrile Hydrochloride]	0.025 to 0.05 µM	25 to 50%	75 to 100%	2.5 to 5 µM	25 to 50%	75 to 100%
N#Cc1c(OCC23CCCN2C[C@H](F)C3)nc(N2CC3CCC(C2)N3)c2c1CN(c1cc(O)cc3ccccc13)CC2 (stereo partly drawn) [Ex 25, 1-(3,8-diazabicyclo[3.2.1]octan-3-yl)-3-(((2R)-2-fluorotetrahydro-1H-pyrrolizin-7a(5H)-yl)methoxy)-6-(3-hydroxynaphthalen-1-yl)-5,6,7,8-tetrahydro-2,6-naphthyridine-4-carbonitrile Hydrochloride]	< 0.025 µM	25 to 50%	75 to 100%	5 to 10 µM	75 to 100%	75 to 100%
CN1CCC[C@H]1COc1nc(N2CC3CCC(C2)N3)c2c(c1C#N)CN(c1cccc3cccc(Cl)c13)CC2 [Ex 16, 1-(3,8-diazabicyclo[3.2.1]octan-3-yl)-6-(8-chloronaphthalen-1-yl)-3-(((S)-1-methylpyrrolidin-2-yl)methoxy)-5,6,7,8-tetrahydro-2,6-naphthyridine-4-carbonitrile Hydrochloride]	0.2 to 1 µM	50 to 75%	75 to 100%	< 2.5 µM	50 to 75%	50 to 75%
